The test system of data set [1] is human abdominal skin explants. The protocol: (§1) Human abdominal skin was obtained (with consent for research from a commercial supplier [L’Union Clinic, Rangueil hospital and Icelltis, Toulouse, France] with certified ethical procedures) from six male and 34 female healthy donors, 41 ± 11 years of age, undergoing cosmetic surgery. Abdominal skin was kept at 4°C during transports and placed in culture within 3 hours of surgery. Pig ear skin was a waste product of the meat industry (without hot steam treatment) from domestic pigs (female Pietrain breed, 6 months old, 80‐100 kg) obtained from a local slaughterhouse (Montauban, France). Ears were taken from the animals within 5 minutes of slaughter and were kept at 4°C during transport to the laboratory, which lasted a maximum of 2 hours. Pig skin samples were dried and then gently shaved.
(§2) The experiment and the preparation of the culture medium were performed under sterile conditions. Human and pig skin was cut with a dermatome to a thickness of 450 ± 50 μm. Skin punches were seeded dermal side down in polycarbonate Transwell® inserts from Corning Life Sciences (Avon, France; 4.16 cm^2 application area with an 8 μm pore size filter). […] The inserts were placed in a six‐well plate containing 1.5 mL culture medium and the skin explants incubated in a standard incubator at 37°C, under an atmosphere of 5% CO2 and 50 ± 10% relative humidity. The culture medium was Dulbecco's modified Eagle medium without phenol red supplemented with 8 mM L‐glutamine, 2 μg/mL streptomycin/penicillin, 25 ng/mL fungizone and 50 ng/mL gentamycin. Skin explants were incubated for 1 hour before application of the formulation.
(§3) The dosing volume was 10 μL/cm^2. For pig skin metabolism studies, which were carried out before the human skin experiments to ensure the analytics were optimal, 2.4 nmol/cm^2 of each chemical (only the ^14C‐labeled form) was applied on the skin and incubated for 24 hours for the measurement of metabolites in the medium. These tissues were further incubated for a total of 48 hours, with a replacement of the culture medium after 24 hours. This longer incubation time and the standard doses of 2.4 nmol/cm^2 were used to maximize the likelihood of the skin forming metabolites to develop analytical methods. The metabolites profiles in pig and human skin were compared in the medium sample at 24 hours of incubation. The metabolite profiles for the 48‐hour timepoint are not reported here since humans skin metabolism was measured at 24 hours only; however, for completeness, the distribution of radioactivity at the end of both pig (48 hours) and human (24 hours) skin incubations is reported. […] The doses were obtained by mixing radiolabeled and cold chemical. One replicate disc per donor and per dose was used. All chemicals were tested on four donors of pig and human skin, except for 2‐AAF and 4‐amino‐3‐nitrophenol (4‐A‐3‐NP), for which three donors were used. The medium was removed after 24 hours of incubation and stored at −20°C for analysis.
(§4) After centrifugation, a 100 μL aliquot of the extract was counted by liquid scintillation. The pellet was dissolved in 3 mL Soluable (60°C, 24 hours) and then counted by liquid scintillation.
(§5) Analysis of the chemicals and their metabolites in medium after 24 hours of incubation with pig and human skin was measured by radio‐high‐performance liquid chromatography (HPLC) using an HPLC 1100 Series, Agilent and a Flow Scintillation Analyzer, Radiomatic 610 TR, Perkin Elmer (Villebon‐sur‐Yvette, France). […] To confirm that metabolites were the same in pig and human skin, medium samples were co‐injected on the new column. The metabolites were identified by LC‐electrospray ionization‐HRMS (HPLC‐ESI‐HRMS) with a RSLC3000 HPLC system coupled to a LTQ‐Orbitrap XL mass spectrometer (Thermo Scientific). The HPLC analytical conditions for identification and quantification of the metabolites for each chemical are summarized in Supporting information Table S1.

Data set [2] has as its system pig ear skin explants. The protocol: as §1, §2, §3, §4, §5
Data set [3] relates to pig ear skin explants. The data set can be described thus: Cutaneous distribution and mass balance of radioactivity in pig skin explants. The protocol:
as §1, §2, §3
(§6) At the end of the experiment, the trans‐wells were dismantled and washed with appropriate solvent for each chemical. […] The cotton swabs were placed in 5 mL of appropriate solvent in a scintillation counting flask and placed in a sonicator bath for 20 minutes. Aliquots of 1 mL were counted by liquid scintillation, after addition of 15 mL of scintillation liquid. Tissue culture inserts were washed with 10 mL of appropriate solvent. One aliquot of 1 mL was counted by liquid scintillation, after addition of 15 mL of scintillation liquid. After media removal, wells were washed twice with 1 mL of the appropriate solvent. Washing solutions were counted by liquid scintillation, after addition of 15 mL of scintillation liquid.
(§7) Pig skin explants were digested using 3 mL Soluable (60°C for 24 hours) and counted by liquid scintillation. Skin extraction process was adapted according to the physicochemical properties of each chemical and its potential metabolites.

Data set [4] concerns human abdominal skin explants. The data set can be described thus: Cutaneous distribution and mass balance of radioactivity in human skin explants. The protocol: as §1, §2, §3, §6, §7
The mark [5] stands for this setting: cinnamyl alcohol applied to human skin, 24 h.
Setting [6] is: cinnamyl alcohol applied to pig skin, 24 h.
The mark [7] stands for this setting: cinnamyl alcohol applied to pig skin, medium 24 h.
Where [8] appears, read: vanillin applied to human skin, 24 h.
Setting [9] is: vanillin applied to pig skin, 24 h.
The mark [10] stands for this setting: propyl paraben applied to human skin, 24 h.
The mark [11] stands for this setting: propyl paraben applied to pig skin, 24 h.
Where [12] appears, read: pig skin, end of incubation (48 h), mean ± SD.
[13] abbreviates: human skin, end of incubation (24 h), mean ± SD.

Like-named read-outs stand apart in the source and are kept apart here. Marks after values point to notes of the source that are not given here.

`O=S(=O)(O)Oc1cccc(O)c1` [R‐sulfate]: the “Amount of metabolite in the medium after 24 h” value (“Amount of metabolite” for short) stood at 8.2 ± 0.1 % Applied dose in data set [1] and 0.5 ± 0.03 % Applied dose in data set [2].

Consider `O=c1ccc2ccc(OS(=O)(=O)[O-])cc2o1.[K+]` [HC‐sulfate], for which the figures for the “Amount of metabolite” value in data set [1] and in data set [2] were 0.9 ± 0.6 % Applied dose and 2.6 ± 0.9 % Applied dose, respectively.

`O=C(O)CNC(=O)c1ccccc1` [V (benzoic acid‐glycine conjugate), benzoylglycine]: the “Amount of metabolite” value in data set [1] (setting [5]) is 1.3 ± 0.1 % Applied dose; in data set [2] (setting [6]) it was 4.4 ± 1.1 % Applied dose.

Regarding `O=C(O[C@@H]1O[C@H](C(=O)O)[C@@H](O)[C@H](O)[C@H]1O)c1ccccc1` [II (benzoic acid glucuronide), benzoic acid glucuronide], the “Amount of metabolite” value in data set [1] turned out to be 4.6 ± 0.4 % Applied dose; in data set [2], 0.5 ± 0.04 % Applied dose.

`Nc1ccc(OC2OC(C(=O)O)C(O)C(O)C2O)cc1[N+](=O)[O-]` (stereo not drawn) [4‐A‐3‐NP‐glucuronide]: the entries for the “Amount of metabolite” value in data set [1] and in data set [2] were 35.0 ± 2.4 % Applied dose and 45.5 ± 0.2 % Applied dose, respectively.

For the compound `O=C(O)C1OC(Oc2cccc(O)c2)C(O)C(O)C1O` (stereo not drawn) [R‐glucuronide], the “Amount of metabolite” value is recorded as 33.7 ± 0.6 % Applied dose in data set [1] and 48.6 ± 0.8 % Applied dose in data set [2].

As for `CCCOC(=O)c1ccc(O)cc1` [Propyl paraben], in data set [3] (female, Pietrain, pig, 48 h), the “Mass balance (% of applied dose at end of incubation)” value was 98.7 ± 3.3 % of applied dose, the Medium radioactivity is on record as 77.8 ± 4.8 % of the applied dose, the Skin radioactivity was 15.9 ± 3.0 % of the applied dose and the Skin surface radioactivity is reported as 5.0 ± 1.8 % of the applied dose. Further, in data set [4] (both, human, 24 h), the “% Radioactivity in culture media after 24 h” value (“% Radioactivity” for short) amounted to 66.0 ± 9.2%, the “Mass balance (% of applied dose at end of incubation)” value is given as 91.8 ± 6.6 % of applied dose, the Medium radioactivity is 61.5 ± 3.9 % of the applied dose and the Skin radioactivity was 27.6 ± 7.0 % of the applied dose. Further, the Skin surface radioactivity in data set [4] (both, human, 24 h) was 2.8 ± 2.3 % of the applied dose. Besides, in data set [1] (both, human, 24 h), the “Number of metabolites detected in the culture medium” value is recorded as 12, the “Parent compound in the medium after 24 h” value is 0.2 ± 0.2 % Applied dose and the “Total metabolites in the medium after 24 h” value came to 55.8 ± 2.9 % Applied dose. Moreover, in data set [2] (female, Pietrain, pig, 24 h), the “Parent compound in the medium after 24 h” value amounted to 0.0 % Applied dose and the “Total metabolites in the medium after 24 h” value is given as 50.3 ± 1.1 % Applied dose.

In the case of `O=c1ccc2ccc(O)cc2o1` [HC, 7‐hydroxycoumarin], the “Amount of metabolite” value in data set [1] (7‐EC applied to human skin, 24 h) came out at 1.4 ± 0.4 % Applied dose; in data set [2] (7‐EC applied to pig skin, 24 h), 1.5 ± 0.8 % Applied dose.

In the case of `O=C(O)c1ccccc1` [B (benzoic acid), benzoic acid], the results for the “Amount of metabolite” value in data set [1] (setting [5]) and in data set [2] (setting [6]) were 0.0 ^* % Applied dose and 4.8 ± 1.0 % Applied dose, respectively. In addition, the “Metabolite as share of the total metabolites” value (“Metabolite as share” below) in data set [2] (setting [7]) is on record as 8 % of the total metabolites.

Consider `COc1cc(C(=O)O)ccc1O` [V (vanillic acid), vanillic acid], for which the “Amount of metabolite” value is listed as 33.5 ± 4.0 % Applied dose in data set [1] (setting [8]); 34 % Applied dose in data set [1] (vanillin applied to human skin, 24 h, listed as vanillic acid); 5.8 ± 0.1 % Applied dose in data set [2] (setting [9]).

Regarding `O=Cc1ccc(O)c(O)c1` [IV (Protocatechuic aldehyde), protocatechuic aldehyde], the “Amount of metabolite” value worked out at 2.4 ± 1.1 % Applied dose in data set [1] (setting [8]); 20.7 ± 1.0 % Applied dose in data set [2] (setting [9]); 21 % Applied dose in data set [2] (vanillin applied to pig skin, 24 h, listed as protocatechuic aldehyde).

Regarding `Nc1ccc(OS(=O)(=O)O)cc1[N+](=O)[O-]` [4‐A‐3‐NP‐sulfate], the “Amount of metabolite” value is 9.98 ± 2.7 % Applied dose in data set [1] and 1.8 ± 0.3 % Applied dose in data set [2].

In the case of `O=C(O)/C=C/c1ccccc1` [VI (cinnamic acid), cinnamic acid], the entries for the “Amount of metabolite” value in data set [1] (setting [5]) and in data set [2] (setting [6]) were 0.8 ± 1.5 % Applied dose and 9.0 ± 0.4 % Applied dose, respectively. Further, the “Metabolite as share” value in data set [2] (setting [7]) is reported as 15 % of the total metabolites.

Consider `O=C(O)[C@H]1O[C@@H](Oc2ccc3ccc(=O)oc3c2)[C@H](O)[C@@H](O)[C@@H]1O` [HC‐glucuronide], for which the “Amount of metabolite” value amounted to 2.2 ± 1.2 % Applied dose in data set [1] and 4.9 ± 0.9 % Applied dose in data set [2].

In the case of `O=C(O)c1ccc(O)cc1` [X (4‐HBA), 4‐hydroxybenzoic acid], the “Amount of metabolite” value in data set [1] (setting [10]) was determined as 42.09 ± 2.8 % Applied dose; in data set [2] (setting [11]) it was 9.5 ± 0.6 % Applied dose; in data set [2] (propyl paraben applied to pig skin, 24 h, listed as 4‐hydroxybenzoic acid) it was 9.5 % Applied dose.

Consider `Cn1c(=O)c2c(ncn2C)n(C)c1=O` [Caffeine], for which the “% Radioactivity” value in data set [3] (pig skin, 24 h, 2.4 nmol/cm^2) worked out at 72.0 ± 4.0%. Also, the “Mass balance (% of applied dose at end of incubation)” value in data set [3] (pig skin, 48 h, 2.4 nmol/cm^2) is reported as 109.2 ± 3.3 % of applied dose. In data set [3] (setting [12]), the Skin radioactivity is given as 8.4 ± 0.4 % of the applied dose and the Skin surface radioactivity was 8.8 ± 10.6 % of the applied dose. In data set [4] (human skin, 24 h), the “% Radioactivity” value was found to be 81.4 ± 3.3% and the “Mass balance (% of applied dose at end of incubation)” value is recorded as 104.0 ± 0.7 % of applied dose. Besides, in data set [4] (setting [13]), the Medium radioactivity is 81.4 ± 3.3 % of the applied dose, the Skin radioactivity was 21.8 ± 2.5 % of the applied dose and the Skin surface radioactivity is 0.8 ± 0.8 % of the applied dose.

For hydroxycinnamic acid [I (HCA)], in data set [1], the “Amount of metabolite” value was 18.0 ± 0.9 % Applied dose and the “Metabolite as share” value is 25 % of the total metabolites. In addition, in data set [2], the “Amount of metabolite” value was 15.7 ± 1.3 % Applied dose and the “Metabolite as share” value is listed as 27 % of the total metabolites.

Take `COc1cc(C=O)ccc1O[C@@H]1O[C@H](C(=O)O)[C@@H](O)[C@H](O)[C@H]1O` [III (vanillin glucuronide), vanillin glucuronide]: the “Amount of metabolite” value in data set [2] worked out at 2.9 ± 0.8 % Applied dose.

Take `O=C(O)/C=C\C(=O)O` [II (maleic acid), maleic acid]: the “Amount of metabolite” value is given as 0.5 ± 0.03 % Applied dose in data set [1] (setting [10]) and 5.6 ± 0.3 % Applied dose in data set [2] (setting [11]).

The values are drawn from publication PMC6587507, “Comparison of the metabolism of 10 chemicals in human and pig skin explants” (Journal of Applied Toxicology, 2018).
